Where a name gives a salt, the structure may show the parent alone. Read-outs that look alike come from different tables or passages of the source. Where only a bound is given, the exact number is not on record here.

The nature of test [1]: conditioned avoidance-escape procedure (modified pole-climb avoidance). The format is in vivo. The settings on record: oral, male Wistar rat. Here is the method: In order to further assess their usefulness, representative compounds of the invention were tested in a conditioned avoidance-escape procedure. In this test*, an animal (male Wistar rat) is conditioned to respond to a stimulus in order to avoid an unpleasant electrical shock. Should the animals fail to give the response in order to avoid the shock, an escape route is available so that it can escape the shock once it is delivered. Preferably, compounds will show variations between the dose that will supress conditioned avoidance and the dose that will suppress the escape response.
*Modification of the pole-climb avoidance paradigm described in Ann. NY Acad. Sci., 740, (1957).

Test [2] can be described thus: Mouse Activity and Screen Test Procedure (MAST): inhibition of spontaneous locomotion and inverted screen test. The settings on record: ip, 1 h, intraperitoneal, one hour prior to testing, mice, locomotion over 60 minutes, read-out: Dose at which an overall dose rating of A was obtained. The format is in vivo, Swiss-Webster male mice. An excerpt: The compound of the invention are new chemical substances which are useful as pharmaceutical agents for the treatment of psychoses. The antipsychotic activity of representative compounds of the invention was established by the Mouse Activity and Screen Test Procedure (MAST) described below.
ANIMALS: Nine unfasted Swiss-Webster male mice (Buckberg Labs) weighing 20-30 g are equally divided into three groups for each drug dose to be tested. That is, data for each dose level was generated by three separate groups of three mice each.
DRUGS: A minimum of three dose levels (10, 30, and 100 mg/kg) are tested for each drug. Treatments are administered intraperitoneally one hour prior to testing. All dosages are calculated as parent compound and given in volumes of […]. Compounds are dissolved or suspended in 0.2% Methocel. Control animals are injected with Methocel.
TESTING: A two part testing procedure is started one hour postinjection. First, the screen test is performed (see Pharmac. Biochem. Behav. 6, 351-353, 1977). Briefly this test consists of placing mice on individual wire screens which are then rotated 180 degrees at the start of a 60-second observation period. The number of mice falling off the inverted screen is recorded.
Immediately following the screen test, the final phase of testing is initiated by placing each group of three mice in one actophotometer (Life Sciences, 22, 1067-1076, 1978). The actophotometer consists of a cylindrical chamber whose center is occupied by another cylinder which contains the illumination for six photocells located on the perimeter of the chamber. Six light-beam interruptions equal one count. Locomotor activity is recorded by computer at 10-minute intervals for 60 minutes.
DATA: The data obtained from the screen test are expressed as percent of mice falling off the screen. Data derived from locomotor activity of drug treated mice are compared to the activity of vehicle treated animals and are expressed as percent inhibition of spontaneous locomotion. All percentages reported for inhibition of locomotion are based upon data accumulated for one hour. Both phases of testing are graded: A=60-100%; C=31-59%; and N=0-30%. An overall dose rating is obtained by the following criteria: […]
Utilizing this procedure, an overall dose rating of A was obtained for the noted compound at the indicated dose as reported in Table 1.

Experiment in test [3]: as above
The settings on record: po, Compound administered orally, mice, read-out: Dose at which an overall dose rating of A was obtained. The format is in vivo, Swiss-Webster male mice.

The mark [4] stands for this setting: suppression of conditioned avoidance, read-out: Oral ED50 Avoidance.
Where [5] appears, read: suppression of escape response, read-out: Oral ED50 Escape.

On to `CC1=Nc2c(C)nn(C)c2C2=NC(C)CN12` (racemic) [R1=CH3, R2=CH3, R3=CH3, R4=H, R5=CH3 (Racemate), 7,8-dihydro-1,3,5,8-tetramethyl-1H-imidazo[1,2-c]pyrazolo[3,4-e]pyrimidine], for which the median effective dose (ED50) in test [1] (setting [4]) worked out at 10 mg/kg; in test [1] (setting [5]), 32 mg/kg.

Turning to `Cc1nn(C)c2c1N=C(C1CC1)N1CC(C)N=C21` (centres unmarked) [5-Cyclopropyl-7,8-dihydro-1,3,8-trimethyl-1H-imidazo[1,2-c]pyrazolo[3,4-e]pyrimidine], the minimal effective dose in test [2] is 100 mg/kg. Further, the 50% effective dose (ED50) in test [1] (setting [4]) came to 11.5 mg/kg; in test [1] (setting [5]), 110 mg/kg.

Take `CCc1nc2c(C)nn(C)c2c2nc(C)cn12` [5-Ethyl-1,3,8-trimethyl-1H-imidazo[1,2-c]pyrazolo[3,4-e]pyrimidine]: the ED50 in test [1] (setting [4]) is 8 mg/kg; in test [1] (setting [5]), 45 mg/kg.

In the case of `CCC1=Nc2c(C)nn(CC)c2C2=NC(C)CN12` (centres unmarked) [R1=C2H5, R2=CH3, R3=C2H5, R4=H, R5=CH3, 1,5-Diethyl-7,8-dihydro-3,8-dimethyl-1H-imidazo[1,2-c]pyrazolo[3,4-e]pyrimidine], in test [2], the minimal effective dose turned out to be 100 mg/kg. The values for the ED50 in test [1] (setting [4]) and in test [1] (setting [5]) were 9 mg/kg and 50 mg/kg, respectively.

As for `CCn1nc(C)c2c1C1=NC(C)CN1C(C)=N2` (centres unmarked) [R1=C2H5, R2=CH3, R3=CH3, R4=H, R5=CH3, 7,8-Dihydro-1-ethyl-3,5,8-trimethyl-1H-imidazo[1,2-c]pyrazolo[3,4-e]pyrimidine], the results for the median effective dose (ED50) in test [1] (setting [4]) and in test [1] (setting [5]) were 5 mg/kg and 15 mg/kg, respectively.

For the compound `CCn1nc(C)c2c1C1=NCCN1C(C)=N2` [R1=C2H5, R2=CH3, R3=CH3, R4=H, R5=H, 1-Ethyl-7,8-dihydro-3,5-dimethyl-1H-imidazo[1,2-c]pyrazolo[3,4-e]pyrimidine], the median effective dose (ED50) in test [1] (setting [4]) stood at 10 mg/kg; in test [1] (setting [5]), 28 mg/kg.

As for `CC1=Nc2c(C)nn(CC(F)(F)F)c2C2=NC(C)CN12` (centres unmarked) [R1=CF3CH2, R2=CH3, R3=CH3, R4=H, R5=CH3, 7,8-Dihydro-3,5,8-trimethyl-1-(2,2,2-trifluoroethyl)-1H-imidazo[1,2-c]pyrazolo[3,4-e]pyrimidine], the minimal effective dose in test [2] is 100 mg/kg.

In the case of `CCC1=Nc2c(C)nn(C)c2C2=NCC(C)N12` (centres unmarked) [R1=CH3, R2=CH3, R3=C2H5, R4=CH3, R5=H, 7,8-Dihydro-5-ethyl-1,3,7-trimethyl-1H-imidazo[1,2-c]pyrazolo[3,4-e]pyrimidine], the minimal effective dose in test [2] came to 100 mg/kg. Further, the median effective dose (ED50) was determined as 35 mg/kg in test [1] (setting [4]) and 52 mg/kg in test [1] (setting [5]).

On to `CCC1=Nc2c(C)nn(C)c2C2=NC(C)CN12` (centres unmarked) [R1=CH3, R2=CH3, R3=C2H5, R4=H, R5=CH3, 7,8-Dihydro-5-ethyl-1,3,8-trimethyl-1H-imidazo[1,2-c]pyrazolo[3,4-e]pyrimidine], for which the ED50 in test [1] (setting [4]) turned out to be 6.4 mg/kg; in test [1] (setting [5]), 66 mg/kg.

`CCC1=Nc2c(C)nn(C)c2C2=NCCN12` [R1=CH3, R2=CH3, R3=C2H5, R4=H, R5=H, 5-Ethyl-7,8-dihydro-1,3-dimethyl-1H-imidazo[1,2-c]pyrazolo[3,4-e]pyrimidine]: the minimal effective dose in test [3] stood at 90 mg/kg.

Turning to `CC1=Nc2c(C)nn(C)c2C2=NCC(C)(C)N12` [R1=CH3, R2=CH3, R3=CH3, R4=(CH3)2, R5=H2, 7,8-Dihydro-1,3,5,7,7-pentamethyl-1H-imidazo[1,2-c]pyrazolo[3,4-e]pyrimidine], the ED50 turned out to be 32 mg/kg in test [1] (setting [4]) and 80 mg/kg in test [1] (setting [5]).

For the compound `CC1=Nc2c(C)nn(C)c2C2=NC(C)C(C)N12` (centres unmarked) [R1=CH3, R2=CH3, R3=CH3, R4=CH3, R5=CH3, 7,8-dihydro-1,3,5,7,8-pentamethyl-1H-imidazo[1,2-c]pyrazolo[3,4-e]pyrimidine], in test [2], the minimal effective dose is 100 mg/kg. The ED50 in test [1] (setting [4]) amounted to 20 mg/kg; in test [1] (setting [5]) it was 57 mg/kg.

Consider `CC1=Nc2c(C)nn(C)c2C2=NC(C)(C)CN12` [R1=CH3, R2=CH3, R3=CH3, R4=H2, R5=(CH3)2, 7,8-Dihydro-1,3,5,8,8-pentamethyl-1H-imidazo[1,2-c]pyrazolo[3,4-e]pyrimidine], for which the ED50 was 18 mg/kg in test [1] (setting [4]) and 120 mg/kg in test [1] (setting [5]).

Take `CCC1CN2C(C)=Nc3c(C)nn(C)c3C2=N1` (centres unmarked) [R1=CH3, R2=CH3, R3=CH3, R4=H, R5=C2H5, 8-ethyl-7,8-dihydro-1,3,5-trimethyl-1H-imidazo[1,2-c]pyrazolo[3,4-e]pyrimidine]: the median effective dose (ED50) was 7.5 mg/kg in test [1] (setting [4]) and 32 mg/kg in test [1] (setting [5]).

Turning to `CC1=Nc2c(C)nn(C)c2C2=N[C@H](C)CN12` [R1=CH3, R2=CH3, R3=CH3, R4=H, R5=CH3 (R-isomer), 7,8-Dihydro-1,3,5-trimethyl-1H-imidazo[1,2-c]-pyrazolo[3,4-e]pyrimidine (R-form)], the ED50 in test [1] (setting [4]) and in test [1] (setting [5]) was less than 65 mg/kg in each case.

Turning to `CC1=Nc2c(C)nn(C)c2C2=N[C@@H](C)CN12` [R1=CH3, R2=CH3, R3=CH3, R4=H, R5=CH3 (S-isomer), 7,8-Dihydro-1,3,5,8-tetramethyl-1H-imidazo[1,2-c]pyrazolo[3,4-e]pyrimidine (S-form)], the minimal effective dose in test [2] amounted to 100 mg/kg. For the same compound, the median effective dose (ED50) in test [1] (setting [4]) is 11.5 mg/kg; in test [1] (setting [5]) it was 20 mg/kg.

For the compound `CC1=Nc2c(C)nn(C)c2C2=N[C@@H](C(C)C)CN12` [R1=CH3, R2=CH3, R3=CH3, R4=H, R5=i-C3H7 (S-isomer), 7,8-Dihydro-8-isopropyl-1,3,5-trimethyl-1H-imidazo[1,2-c]pyrazolo[3,4-e]pyrimidine dihydrochloride (S-form)], the minimal effective dose in test [2] was found to be 100 mg/kg. The values for the ED50 in test [1] (setting [4]) and in test [1] (setting [5]) were 20 mg/kg and 70 mg/kg, respectively.

Take `Cc1nn(C)c2c1N=CN1CC(C)N=C21` (centres unmarked) [R1=CH3, R2=CH3, R3=H, R4=H, R5=CH3, 7,8-Dihydro-1,3,8-trimethyl-1H-imidazo[1,2-c]pyrazolo[3,4-e]pyrimidine]: in test [2], the minimal effective dose was determined as 100 mg/kg. The 50% effective dose (ED50) stood at 18 mg/kg in test [1] (setting [4]) and 56 mg/kg in test [1] (setting [5]).

With `Cc1nn(C)c2c1N=CN1CCN=C21` [R1=CH3, R2=CH3, R3=H, R4=H, R5=H, 7,8-Dihydro-1,3-dimethyl-1H-imidazo[1,2-c]pyrazolo [3,4-e]pyrimidine], the minimal effective dose in test [2] came to 100 mg/kg. In addition, the figures for the ED50 in test [1] (setting [4]) and in test [1] (setting [5]) were 18 mg/kg and 54 mg/kg, respectively.

In the case of `CCCn1nc(C)c2c1C1=NC(C)CN1C(C)=N2` (centres unmarked) [R1=n-C3H7, R2=CH3, R3=CH3, R4=H, R5=CH3, 7,8-Dihydro-3,5,8-trimethyl-1-n-propyl-1H-imidazo[1,2-c]pyrazolo[3,4-e]pyrimidine], the minimal effective dose in test [2] was 100 mg/kg. For the same compound, the median effective dose (ED50) in test [1] (setting [4]) was 37 mg/kg; in test [1] (setting [5]), 90 mg/kg.

The record behind these values is patent US4469868A, “Alkylimidazo[1,2-c]pyrazolo[3,4-e]pyrimidines” (Warner-Lambert Company, priority 1982, dated 1984).
